The nature of the series: Measurement of hydrogen peroxide remaining ratio in a virtual hair bleach composition (Cu, ammonia, H2O2; iodometric titration). Conditions: 20.0 mg compound, aqueous Cu solution, stirred 10 minutes at 30° C. As for the experimental part:
The first requirement is a remaining ratio of hydrogen peroxide. The remaining ratio of hydrogen peroxide is determined by measuring the remaining amount of hydrogen peroxide in a virtual hair bleach composition after a predetermined time. The remaining ratio exceeding a predetermined value allows existence of hydrogen peroxide which can be used for hair bleaching or dyeing and promotes the hair bleaching action. The remaining ratio below a predetermined value, on the other hand, prevents excessive stabilization of hydrogen peroxide, whereby the oxidizing agent acts to emit adequate —O2H (perhydroxy anion).
The hydrogen peroxide remaining ratio in the present invention is measured in the following manner. Measurement of hydrogen peroxide remaining ratio %: In a 50 mL screw tube are charged 20.0 mg of Compound (A) and 5.98 g of deionized water to dissolve the former in the latter. […] The point when a violet color (bluish violet to reddish violet) disappears completely is designated as a terminal point and hydrogen peroxide % is determined in accordance with the below-described equation. The amount of hydrogen peroxide in an aqueous solution obtained by diluting 10.00 of 2% aqueous hydrogen peroxide with 10.00 g of deionized water is also measured and the hydrogen peroxide amount at this time is taken as a hydrogen peroxide remaining ratio of 100%.

For `NCCCN` [1,3-Propanediamine], the “Hydrogen peroxide remaining ratio” value was found to be 19.3%.

These data come from patent US7211116B2, “Hair dye composition” (Kao Corporation, priority 2001, dated 2007).
